According to patent US8603990B2, “Grafted macromolecular conjugates of doxorubicin with anticancer activity and method of their preparation” (priority 2006, dated 2013):
In brackets after ≈: the same amount, converted by molar mass.

Legend:
[1] = system: Jurkat; experiment: In vitro cytotoxicity, Jurkat line; format: cell-based; conditions: Homo sapiens; Jurkat cells; repeated values per sample
[2] = system: SW620 (human colorectal carcinoma); experiment: In vitro cytotoxicity, SW620 line; format: cell-based; conditions: SW-620, SW620 cells, repeated values per sample
[3] = system: mouse T cellular lymphoma EL4; conditions: for Mice surviving on the 70th day: end of experiment day 70
Procedure: The in vivo experiments involved a model of mouse T cellular lymphoma EL4, the experimental animals were mice (males) of the B/6 species that were subcutaneously implanted with 10^5 tumor cells on day 0. The conjugates were applied intravenously in a dose of 1×15 mg/kg of DOX equivalent. This single application was carried out on the ninth day after the tumor cells transplantation, i.e. at a time when the tumor was palpable, about approx. 400 mm^3 in size.

[4] = molecular target: cathepsine B (Homo sapiens, UniProt P07858); experiment: Degradation of grafted conjugates by cathepsine B; format: in vitro ADME; conditions: cathepsine B 5.10^−7 mol/l, pH 6, 37° C., 24 hours
Procedure: The degradation experiments were carried in a phosphate buffer (0.1 M phosphate buffer containing 0.05 M NaCl, pH 6) in the presence of cathepsine B or glutathione in the role of degradation agents, i.e. in the environment modeling intracellular environment (cytoplasm, endosome and secondary lysosome). The grafted polymeric conjugates were dissolved in the phosphate buffer in concentration of 50 mg/ml and immediately before the solutions were placed in a thermostat (37° C.) a stock solution of cathepsine B or glutathione was added to the solutions so that the final concentration of these agents in the incubation medium was 5.10^−7 mol/l and 3.10^−3 mol/l for cathepsine and glutathione, respectively. In predetermined intervals aliquot parts (200 μl) were sampled from the incubation solutions. The samples were desalinated in the PD-10 columns and lyophilized. The molecular weight of the degradation products was measured using the Shimadzu SIL-HT liquid chromatograph fitted with a differential refractometer (Shimadzu RID-10A) and multiangle light dispersion detector (DAWN EOS, Wyatt Technology, USA). The analysis was carried out in a Superose™ 6 column (300×10 mm) (Amersham Bioscience). […] The molecular weight and polydispersity of the copolymer was calculated using the Astra software. […]

[5] = 1×15 mg/kg DOX equivalent i.v. on day 9

| Compound | IC50 [1] [µg/mL] | IC50 [2] [µg/mL] | Anticancer effect [3, 5] | Weight decrease as a sign of toxicity [3, 5] | Mice surviving on the 70th day [3, 5] [%] | Molecular weight of degradation products [4] | Survival: day of animal death or LTS (individual mice) ([3]; B/6 mice, EL 4 10^5 cells s.c. day 0, one i.v. dose 15 mg/kg DOX equivalent on day 9) |
| --- | --- | --- | --- | --- | --- | --- | --- |
| COc1cccc2c1C(=O)c1c(O)c3c(c(O)c1C2=O)C[C@@](O)(C(=O)CO)C[C@@H]3O[C@H]1C[C@H](N)[C@H](O)[C@H](C)O1 [Dox, doxorubicin] | 0.119 (≈ 0.219 µM) | 0.003 (≈ 0.00552 µM) | – | – | – | – | – |
| poly(HPMA-co-MA-AH-NHNH2-MA-AH-NHN=DOX-co-MA-GFLG-NH—)-graft-[(GFLG)-poly(HPMA-co-MA-AH-NHNH2-co-MA-AH-NHN=DOX)] [Conjugate 1d] | – | – | very significant anticancer effect | no weight decrease | 88 | below the renal filtration limit | – |
| poly(HPMA-co-MA-AH-NHNH2-co-MA-AH-NHN=DOX-co-MA-AH-SS—)-graft-[(SS)-poly(HPMA-co-MA-AH-NHNH2-MA-AH-NHN=DOX)] [Conjugate 3a] | – | – | very significant anticancer effect | – | 100 | – | LTS |
